Laboratory results from patent US20100226853A1 (priority 2007, published 2010).
Read-outs that look alike come from different tables or passages of the source.

Tests used:
[1] = Octanol/water partition coefficient determination; assay type: physicochemical; details: n-octanol/water
M07e cells = test: Cellular proliferation, [3H]thymidine uptake, Kit ligand dependent growth; assay type: cell-based; details: Homo sapiens, M-07e, read-out: IC50, M07e cells proliferation
Method: (§1) The immortalized human hematopoietic Philadelphia chromosome-positive cytokine independent R10(−) M07e^p210 cell line (46) was maintained in Iscove's modified Dulbecco's medium (Life Technologies, Inc., Grand Island, N.Y.) containing 10% FCS (Hyclone, Logan, Utah). The parental M07e megakaryoblastic cell line was a kind gift of Brian Druker and was maintained in the presence of 50 ng/mL kit ligand (SCF) as described (46-47) K562 was obtained from the ATCC. K562 was maintained in suspension in 90% RPMI 1640 medium supplemented with 10% FBS, 2 mM L-glutamine, 10 mM HEPES, 1 mM sodium pyruvate, 1.5 g/L sodium bicarbonate, 4.5 g/L L-glucose, 10% FBS, 100 IU/mL penicillin and 100 μg/ml streptomycin. Tumor cell cultures were maintained in a humidified atmosphere with 5% CO2 at 37° C. (NuAire).
. Data points for all assays were obtained in triplicate, and background incorporation from cell-free wells was determined and subtracted from all data points. The data was analyzed using a non-linear regression fit to a sigmoidal dose-response curve using Prism 4 (GraphPad Software, Inc).

[2] = system: R10 neg cells (MO7e/p210^bcr-abl); test: Cellular proliferation, [3H]thymidine uptake; assay type: cell-based; details: Homo sapiens, read-out: IC50, R10 neg cells (MO7e/p210^bcr-abl) proliferation
Method: as §1, with “K562 was maintained in suspension in 90% RPMI 1640 medium supplemented with 10% FBS, 2 mM L-glutamine, 10 mM HEPES, 1 mM sodium pyruvate, 1.5 g/L sodium bicarbonate, 4.5 g/L L-glucose, 10% FBS, 100 IU/mL penicillin and 100 μg/ml streptomycin.” left out
(§2) Data points for all assays were obtained in triplicate, and background incorporation from cell-free wells was determined and subtracted from all data points. The data was analyzed using a non-linear regression fit to a sigmoidal dose-response curve using Prism 4 (GraphPad Software, Inc).

K562 cells = test: Cellular proliferation, [3H]thymidine uptake; assay type: cell-based; details: Homo sapiens, K562, read-out: IC50, K562 cells proliferation
Method: as §1, with “K562 was maintained in suspension in 90% RPMI 1640 medium supplemented with 10% FBS, 2 mM L-glutamine, 10 mM HEPES, 1 mM sodium pyruvate, 1.5 g/L sodium bicarbonate, 4.5 g/L L-glucose, 10% FBS, 100 IU/mL penicillin and 100 μg/ml streptomycin.” left out
as §2

ABL = ABL (Homo sapiens, UniProt P00519); test: QuickScout ELISA kinase panel; assay type: biochemical; design: purchased Carna Biosciences (QuickScout service)
Chain of ABL (P00519 whole entry): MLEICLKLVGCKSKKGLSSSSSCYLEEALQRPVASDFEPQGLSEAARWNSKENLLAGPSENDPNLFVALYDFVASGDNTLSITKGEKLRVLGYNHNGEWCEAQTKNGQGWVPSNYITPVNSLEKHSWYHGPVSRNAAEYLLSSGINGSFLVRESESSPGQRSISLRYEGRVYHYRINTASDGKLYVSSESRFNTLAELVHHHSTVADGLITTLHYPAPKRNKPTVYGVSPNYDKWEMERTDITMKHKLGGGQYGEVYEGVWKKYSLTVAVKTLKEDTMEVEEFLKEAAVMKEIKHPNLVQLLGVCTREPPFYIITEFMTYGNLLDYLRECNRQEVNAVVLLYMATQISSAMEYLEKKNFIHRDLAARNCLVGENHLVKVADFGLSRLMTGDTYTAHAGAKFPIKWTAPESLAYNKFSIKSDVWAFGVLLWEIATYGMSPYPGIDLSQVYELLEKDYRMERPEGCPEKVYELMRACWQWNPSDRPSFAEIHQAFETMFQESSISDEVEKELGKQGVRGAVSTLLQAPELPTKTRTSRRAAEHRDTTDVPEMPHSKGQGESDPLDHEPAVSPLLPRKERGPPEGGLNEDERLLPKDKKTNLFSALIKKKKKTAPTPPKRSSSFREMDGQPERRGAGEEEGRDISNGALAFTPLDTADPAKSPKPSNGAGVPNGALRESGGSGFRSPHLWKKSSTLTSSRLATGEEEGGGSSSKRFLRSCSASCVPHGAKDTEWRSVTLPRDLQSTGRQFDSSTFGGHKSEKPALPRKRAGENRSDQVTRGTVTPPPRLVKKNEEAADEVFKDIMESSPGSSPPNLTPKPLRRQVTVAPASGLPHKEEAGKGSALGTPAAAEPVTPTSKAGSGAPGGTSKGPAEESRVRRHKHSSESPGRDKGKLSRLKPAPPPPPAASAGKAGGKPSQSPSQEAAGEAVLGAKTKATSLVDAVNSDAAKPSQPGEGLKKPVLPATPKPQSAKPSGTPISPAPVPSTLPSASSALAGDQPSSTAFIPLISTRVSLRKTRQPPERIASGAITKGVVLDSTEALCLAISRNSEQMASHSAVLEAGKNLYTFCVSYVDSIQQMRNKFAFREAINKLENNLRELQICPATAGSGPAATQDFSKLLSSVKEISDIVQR
Text: (§3) An ELISA-based assay was used in which the phosphorylation of an oligopeptide substrate was detected by an HRP-conjugated anti-p-Tyr (PY20) probe.

SRC [3] = target: T1, SRC (Homo sapiens, UniProt P12931); assay type: biochemical; details: read-out: IC50, Src protein
T1 sequence (P12931 whole entry): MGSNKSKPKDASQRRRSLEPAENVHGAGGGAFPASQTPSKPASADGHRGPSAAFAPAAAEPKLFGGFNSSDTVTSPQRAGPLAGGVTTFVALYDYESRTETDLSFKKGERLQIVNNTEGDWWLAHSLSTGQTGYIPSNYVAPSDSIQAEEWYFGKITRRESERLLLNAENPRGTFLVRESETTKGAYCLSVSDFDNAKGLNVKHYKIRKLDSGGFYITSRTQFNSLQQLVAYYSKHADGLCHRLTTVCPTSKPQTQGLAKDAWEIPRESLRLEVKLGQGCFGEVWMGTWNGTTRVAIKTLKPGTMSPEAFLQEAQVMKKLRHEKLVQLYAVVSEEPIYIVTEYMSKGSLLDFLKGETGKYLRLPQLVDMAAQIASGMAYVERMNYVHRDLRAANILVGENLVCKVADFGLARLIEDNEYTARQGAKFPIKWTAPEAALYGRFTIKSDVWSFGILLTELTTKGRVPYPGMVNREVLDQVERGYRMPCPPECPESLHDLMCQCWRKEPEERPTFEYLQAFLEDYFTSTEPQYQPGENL
Method: Kinase was preincubated with inhibitor at 37° C. for 10 min prior to starting the reaction upon addition of ATP; Assay was carried out in 384 well clear plates (Corning) and absorbance was measured on SpectraMax plate reader (Molecular Devices). Reaction rates were plotted against inhibitor concentration and fitted using SigmaPlot 9.0 (Systat Software Inc.).

SRC [4] = target: T1, SRC; test: biochemical
Text: as §3

1% bovine serum albumin = target: T2, 1% bovine serum albumin (Bos taurus, UniProt P02769); test: Protein binding assay, BSA; assay type: in vitro ADME
T2 construct: from tissue; host or cells: bovine serum (from the protein's name)
T2 sequence (P02769 25-607): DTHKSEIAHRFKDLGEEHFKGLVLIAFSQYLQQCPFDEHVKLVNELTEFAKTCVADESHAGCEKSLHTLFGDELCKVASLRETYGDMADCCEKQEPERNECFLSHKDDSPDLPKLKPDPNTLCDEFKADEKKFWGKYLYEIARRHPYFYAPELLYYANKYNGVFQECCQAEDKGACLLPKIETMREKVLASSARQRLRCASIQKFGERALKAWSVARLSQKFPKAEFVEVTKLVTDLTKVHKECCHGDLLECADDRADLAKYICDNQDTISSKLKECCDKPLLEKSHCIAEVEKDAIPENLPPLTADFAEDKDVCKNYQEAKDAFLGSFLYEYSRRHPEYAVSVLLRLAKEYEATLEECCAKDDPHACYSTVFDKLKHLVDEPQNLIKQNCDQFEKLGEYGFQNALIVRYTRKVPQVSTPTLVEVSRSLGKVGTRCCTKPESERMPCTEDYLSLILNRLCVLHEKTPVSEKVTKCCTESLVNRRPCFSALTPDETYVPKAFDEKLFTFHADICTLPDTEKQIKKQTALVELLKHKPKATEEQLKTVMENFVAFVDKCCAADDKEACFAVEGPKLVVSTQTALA
Method: Protein binding of the radiotracers were determined adding 37 kBq (1 μCi) of each radioligand to samples of 1% bovine serum albumin and 1 mL of fresh human serum. The protein was precipitated by adding 1 mL of ice cold 20% trichloroacetic acid and the suspension centrifuged and washing with 1 mL of 20% ice cold trichloroacetic acid. The protein pellets and supernatants were counted in a gamma counter to determine the protein binding of the radioligands.

B6D2F1 mice = test: Acute toxicity in mice; assay type: in vivo; details: for toxicity in mice: 0.1 mg/kg intravenously, single dose, 14 days observation
Text: Each group contained three mice. […] There were five males and five females in either control or treatment group. […] Mice were sent for pathology, including complete blood cell count, complete chemistry panel and complete necropsy. Two intact male mice and two intact female mice were also sent and used as references.

[5] = 0.1 mg/kg i.v., 14 days, average, same in control group

Cc1nc(Nc2ncc(C(=O)Nc3c(C)cccc3Cl)s2)cc(N2CCN(CCF)CC2)n1 [Compound 5, N-(2-Chloro-6-methylphenyl)-2-(6-(4-(2-fluoroethyl)piperazin-1-yl)-2-methylpyrimidin-4-ylamino)thiazole-5-carboxamide]
logD at 2 h [1]: 2.1 ± 0.6
IC50 (M07e cells): 1.1 nM
IC50 [2]: 0.1 nM
IC50 (K562 cells): 1.1 nM
IC50 (ABL): < 2 nM
inhibition at 0.01 µM (ABL; Compound 5 at 10 nM): > 97%
% Inhibition of Kinase Activity, ABL (ABL; Compound 5 at 10 nM, 0.01 µM): 99.4%
IC50 (SRC [3]): 3.5 ± 2.2 nM
IC50 (SRC [4]): < 2 nM
% Inhibition of Kinase Activity, SRC (SRC [4]; Compound 5 at 10 nM, 0.01 µM): 97.5%
inhibition at 0.01 µM (SRC [4]; read-out: % Inhibition of Kinase Activity, SRC, Compound 5 at 10 nM): > 97%
protein bound in 1% BSA (1% bovine serum albumin): 99.0±0.3%
body weight gain, female mice (B6D2F1 mice; [5]): 0.5 g
body weight gain, male mice (B6D2F1 mice; [5]): 1.8 g
toxicity in mice (B6D2F1 mice): has not shown toxicity
toxicity in mice (B6D2F1 mice; listed as fluoro derivative 5): safe and nontoxic
